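96-well plates; 48 h exposure; 5 concentrations. Endpoints by linear interpolation between flanking doses. Not reached: highest tested concentration assigned. Definition used: TGI = concentration required for complete inhibition of growth.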
Experiments:
Assay in all cases: NCI-60 cell line screen, 48 h
SNB-78 CNS = tested on: SNB-78 CNS
786-0 renal = tested on: 786-0 renal
HL-60(TB) leukemia = tested on: HL-60(TB) leukemia
UACC-257 melanoma = tested on: UACC-257 melanoma
M19-MEL melanoma = tested on: M19-MEL melanoma
SN12C renal = tested on: SN12C renal
SK-MEL-2 melanoma = tested on: SK-MEL-2 melanoma
A549 NSCLC = tested on: A549 NSCLC
SNB-19 CNS = tested on: SNB-19 CNS
OVCAR-5 ovarian = tested on: OVCAR-5 ovarian
OVCAR-3 ovarian = tested on: OVCAR-3 ovarian
COLO 205 colon = tested on: COLO 205 colon
K-562 leukemia = tested on: K-562 leukemia
NCI-H522 lung = tested on: NCI-H522 lung
HCC-2998 colon = tested on: HCC-2998 colon
HOP-62 NSCLC = tested on: HOP-62 NSCLC
HOP-92 NSCLC = tested on: HOP-92 NSCLC
SK-MEL-5 melanoma = tested on: SK-MEL-5 melanoma
SK-MEL-28 melanoma = tested on: SK-MEL-28 melanoma
A498 renal = tested on: A498 renal
U251 CNS = tested on: U251 CNS
RPMI-8226 leukemia = tested on: RPMI-8226 leukemia
MOLT-4 leukemia = tested on: MOLT-4 leukemia
IGROV1 ovarian = tested on: IGROV1 ovarian
OVCAR-4 ovarian = tested on: OVCAR-4 ovarian
LOX IMVI melanoma = tested on: LOX IMVI melanoma
UO-31 renal = tested on: UO-31 renal
ACHN renal = tested on: ACHN renal
M14 melanoma = tested on: M14 melanoma
RXF 393 renal = tested on: RXF 393 renal
LXFL 529 NSCLC = tested on: LXFL 529 NSCLC
CAKI-1 renal = tested on: CAKI-1 renal
HT29 colon = tested on: HT29 colon
CCRF-CEM leukemia = tested on: CCRF-CEM leukemia
NCI-H460 lung = tested on: NCI-H460 lung
UACC-62 melanoma = tested on: UACC-62 melanoma
NCI-H226 lung = tested on: NCI-H226 lung
HCT-116 colon = tested on: HCT-116 colon
KM12 colon = tested on: KM12 colon
SR leukemia = tested on: SR leukemia
DMS 114 small cell lung = tested on: DMS 114 small cell lung
SF-295 CNS = tested on: SF-295 CNS
DLD-1 colon = tested on: DLD-1 colon
DMS 273 small cell lung = tested on: DMS 273 small cell lung
OVCAR-8 ovarian = tested on: OVCAR-8 ovarian
SF-268 CNS = tested on: SF-268 CNS
SF-539 CNS = tested on: SF-539 CNS
SK-OV-3 ovarian = tested on: SK-OV-3 ovarian
NCI-H23 lung = tested on: NCI-H23 lung
MALME-3M melanoma = tested on: MALME-3M melanoma
SNB-75 CNS = tested on: SNB-75 CNS
SW-620 colon = tested on: SW-620 colon
EKVX NSCLC = tested on: EKVX NSCLC
TK-10 renal = tested on: TK-10 renal
KM20L2 colon = tested on: KM20L2 colon
HCT-15 colon = tested on: HCT-15 colon
HOP-18 NSCLC = tested on: HOP-18 NSCLC

SMILES: CC(=O)NC1=C(C)C(=O)c2c(nc3n2CCC3OC(=O)c2ccccc2)C1=O (stereo unspecified)
- TGI (SNB-78 CNS): 5.46 µM
- TGI (786-0 renal): 14.9 µM
- TGI (HL-60(TB) leukemia): 5.13 µM
- TGI (UACC-257 melanoma): 2.93 µM
- TGI (M19-MEL melanoma): 3.57 µM
- TGI (SN12C renal): 3.41 µM
- TGI (SK-MEL-2 melanoma): 3.19 µM
- TGI (A549 NSCLC): 3.1 µM
- TGI (SNB-19 CNS): 7.65 µM
- TGI (OVCAR-5 ovarian): 3.54 µM
- TGI (OVCAR-3 ovarian): 0.528 µM
- TGI (COLO 205 colon): 12.5 µM
- TGI (K-562 leukemia): 6.17 µM
- TGI (NCI-H522 lung): 4.06 µM
- TGI (HCC-2998 colon): 12.1 µM
- TGI (HOP-62 NSCLC): 5.56 µM
- TGI (HOP-92 NSCLC): 4.7 µM
- TGI (SK-MEL-5 melanoma): 3.12 µM
- TGI (SK-MEL-28 melanoma): 3.67 µM
- TGI (A498 renal): 25.3 µM
- TGI (U251 CNS): 3.86 µM
- TGI (RPMI-8226 leukemia): 5.62 µM
- TGI (MOLT-4 leukemia): 5.57 µM
- TGI (IGROV1 ovarian): 3.98 µM
- TGI (OVCAR-4 ovarian): 3.2 µM
- TGI (LOX IMVI melanoma): 2.96 µM
- TGI (UO-31 renal): 6.3 µM
- TGI (ACHN renal): 8.72 µM
- TGI (M14 melanoma): 3.47 µM
- TGI (RXF 393 renal): 11.6 µM
- TGI (LXFL 529 NSCLC): 2.9 µM
- TGI (CAKI-1 renal): 4.78 µM
- TGI (HT29 colon): 3.48 µM
- TGI (CCRF-CEM leukemia): 4.44 µM
- TGI (NCI-H460 lung): 5.13 µM
- TGI (UACC-62 melanoma): 3.44 µM
- TGI (NCI-H226 lung): 4.69 µM
- TGI (HCT-116 colon): 4.1 µM
- TGI (KM12 colon): 10.3 µM
- TGI (SR leukemia): 6 µM
- TGI (DMS 114 small cell lung): 2.54 µM
- TGI (SF-295 CNS): 3.06 µM
- TGI (DLD-1 colon): 4.46 µM
- TGI (DMS 273 small cell lung): 5.28 µM
- TGI (OVCAR-8 ovarian): 2.95 µM
- TGI (SF-268 CNS): 4.52 µM
- TGI (SF-539 CNS): 3.4 µM
- TGI (SK-OV-3 ovarian): 8.51 µM
- TGI (NCI-H23 lung): 3.55 µM
- TGI (MALME-3M melanoma): 3.38 µM
- TGI (SNB-75 CNS): 6.36 µM
- TGI (SW-620 colon): 4.55 µM
- TGI (EKVX NSCLC): 3.01 µM
- TGI (TK-10 renal): 24.1 µM

SMILES: CSc1nc(=Nc2ccccc2)sn1-c1ccccc1
- TGI (SNB-78 CNS): 47 µM
- TGI (786-0 renal): 34.4 µM
- TGI (HL-60(TB) leukemia): 22.6 µM
- TGI (UACC-257 melanoma): 43.9 µM
- TGI (M19-MEL melanoma): 23 µM
- TGI (SN12C renal): 39 µM
- TGI (SK-MEL-2 melanoma): 76.9 µM
- TGI (A549 NSCLC): 44 µM
- TGI (SNB-19 CNS): 56.7 µM
- TGI (OVCAR-5 ovarian): 48 µM
- TGI (OVCAR-3 ovarian): 38.5 µM
- TGI (K-562 leukemia): 30.1 µM
- TGI (NCI-H522 lung): 13.2 µM
- TGI (HCC-2998 colon): 38.1 µM
- TGI (HOP-62 NSCLC): 31.3 µM
- TGI (SK-MEL-5 melanoma): 23.2 µM
- TGI (KM20L2 colon): 28.4 µM
- TGI (SK-MEL-28 melanoma): 30.2 µM
- TGI (A498 renal): 38.7 µM
- TGI (U251 CNS): 33.4 µM
- TGI (RPMI-8226 leukemia): 40.5 µM
- TGI (MOLT-4 leukemia): 96 µM
- TGI (IGROV1 ovarian): 40 µM
- TGI (OVCAR-4 ovarian): 23.6 µM
- TGI (LOX IMVI melanoma): 32 µM
- TGI (UO-31 renal): 39.8 µM
- TGI (HCT-15 colon): 30.4 µM
- TGI (ACHN renal): 56 µM
- TGI (M14 melanoma): 22.5 µM
- TGI (RXF 393 renal): 31.3 µM
- TGI (CAKI-1 renal): 35.1 µM
- TGI (HT29 colon): 11.8 µM
- TGI (CCRF-CEM leukemia): 40 µM
- TGI (NCI-H460 lung): 16.9 µM
- TGI (UACC-62 melanoma): 18 µM
- TGI (NCI-H226 lung): 36.2 µM
- TGI (HCT-116 colon): 32.5 µM
- TGI (KM12 colon): 44.2 µM
- TGI (SR leukemia): 81.1 µM
- TGI (DMS 114 small cell lung): 16.1 µM
- TGI (SF-295 CNS): 49.2 µM
- TGI (DMS 273 small cell lung): 22.8 µM
- TGI (OVCAR-8 ovarian): 46.3 µM
- TGI (SF-268 CNS): 54 µM
- TGI (SF-539 CNS): 36.9 µM
- TGI (SK-OV-3 ovarian): 62.2 µM
- TGI (NCI-H23 lung): 36 µM
- TGI (MALME-3M melanoma): 99.1 µM
- TGI (SNB-75 CNS): 55.8 µM
- TGI (SW-620 colon): 26.1 µM
- TGI (EKVX NSCLC): > 100 µM
- TGI (TK-10 renal): 60.5 µM

SMILES: CC(C1=CC=C2[C@@H]3CCC4CC(N(C)C)CC[C@]4(C)C3CC[C@]12C)N(C)C=O (stereo partly specified)
- TGI (786-0 renal): > 100 µM
- TGI (HL-60(TB) leukemia): > 100 µM
- TGI (M19-MEL melanoma): > 100 µM
- TGI (SN12C renal): > 100 µM
- TGI (SK-MEL-2 melanoma): > 100 µM
- TGI (A549 NSCLC): > 100 µM
- TGI (SNB-19 CNS): > 100 µM
- TGI (OVCAR-5 ovarian): > 100 µM
- TGI (OVCAR-3 ovarian): > 100 µM
- TGI (COLO 205 colon): > 100 µM
- TGI (K-562 leukemia): > 100 µM
- TGI (NCI-H522 lung): > 100 µM
- TGI (HCC-2998 colon): > 100 µM
- TGI (HOP-62 NSCLC): > 100 µM
- TGI (HOP-92 NSCLC): > 100 µM
- TGI (SK-MEL-5 melanoma): > 100 µM
- TGI (SK-MEL-28 melanoma): > 100 µM
- TGI (A498 renal): > 100 µM
- TGI (U251 CNS): > 100 µM
- TGI (RPMI-8226 leukemia): > 100 µM
- TGI (MOLT-4 leukemia): > 100 µM
- TGI (IGROV1 ovarian): > 100 µM
- TGI (OVCAR-4 ovarian): > 100 µM
- TGI (LOX IMVI melanoma): > 100 µM
- TGI (UO-31 renal): > 100 µM
- TGI (HCT-15 colon): > 100 µM
- TGI (ACHN renal): > 100 µM
- TGI (M14 melanoma): > 100 µM
- TGI (HOP-18 NSCLC): > 100 µM
- TGI (RXF 393 renal): > 100 µM
- TGI (LXFL 529 NSCLC): > 100 µM
- TGI (CAKI-1 renal): > 100 µM
- TGI (HT29 colon): > 100 µM
- TGI (CCRF-CEM leukemia): > 100 µM
- TGI (UACC-62 melanoma): > 100 µM
- TGI (HCT-116 colon): > 100 µM
- TGI (KM12 colon): > 100 µM
- TGI (DMS 114 small cell lung): > 100 µM
- TGI (SF-295 CNS): > 100 µM
- TGI (DLD-1 colon): > 100 µM
- TGI (DMS 273 small cell lung): > 100 µM
- TGI (OVCAR-8 ovarian): > 100 µM
- TGI (SF-268 CNS): > 100 µM
- TGI (SF-539 CNS): > 100 µM
- TGI (SK-OV-3 ovarian): > 100 µM
- TGI (NCI-H23 lung): > 100 µM
- TGI (MALME-3M melanoma): > 100 µM
- TGI (SNB-75 CNS): > 100 µM
- TGI (SW-620 colon): > 100 µM
- TGI (TK-10 renal): > 100 µM
